Read-outs that look alike come from different tables or passages of the source.
Key:
PPARγ = target: T1, PPARγ (Homo sapiens, UniProt P37231); assay: Gal4-transactivation luciferase assay in HEK293A cells, PPARγ LBD; type: cell-based
T1 construct: pcDNA5-GAL4-PPAR LBD, pG5-luc, and Rluc vector (as control) were transfected into HEK293A cells; expressed in transfected cells; host or cells: HEK293A
T1 sequence (P37231 238-503 limits assumed): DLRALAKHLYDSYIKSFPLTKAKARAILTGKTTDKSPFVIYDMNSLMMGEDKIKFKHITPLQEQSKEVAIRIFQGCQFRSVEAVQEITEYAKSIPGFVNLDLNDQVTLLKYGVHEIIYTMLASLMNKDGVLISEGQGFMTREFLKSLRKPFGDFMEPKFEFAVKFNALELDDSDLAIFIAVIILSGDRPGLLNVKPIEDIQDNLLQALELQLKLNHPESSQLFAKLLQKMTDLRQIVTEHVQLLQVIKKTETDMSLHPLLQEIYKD
Experimental: HEK293A cells were transfected with the GAL4-reporter plasmids and pGL4.74 (Promega, Madison, WI, USA) as an internal standard through electroporation using a Neon Transfection System (Invitrogen, Carlsbad, CA, USA). All vector materials were provided by Professor Yuichiro Kanno at Toho University. Cells were treated with DTMB and each positive control compound for 24 h after overnight incubation. Cells were then harvested and resuspended in luciferase lysis buffer (Promega), followed by incubation on ice for 10 min. Cell debris was removed by centrifugation at 20,000 × g at 4 °C for 10 min, and the supernatants were used for luciferase assay. Using a dual-luciferase reporter assay system (Promega), luciferase activities were measured according to the manufacturer’s instructions. Experimental firefly luciferase activities were normalized against those of Renilla luciferase.

[1] = Pharmacokinetics and brain distribution after oral administration; type: in vivo, C57BL/6 mice; conditions: male, C57BL/6, mouse, mice; for Kp: brain / plasma, po, 50 mg/kg
Experimental: To investigate the pharmacokinetics and brain distribution of DTMB, fifty-six male C57BL/6 mice (22–26 g) were fasted with water ad libitum for 16 h before oral administration of DTMB and randomly divided into seven groups (n=8 per each sampling time point). Mice were administered with a DTMB suspension in 1% carboxymethylcellulose at a dose of 50 mg/kg via oral gavage, and blood samples (approximately 0.1 mL) were collected at 0, 0.16, 0.5, 1, 4, 8, and 24 h via the abdominal artery. Subsequently, whole brain tissues were isolated, weighed, and homogenized with two volume of ice-cold 80% methanol solution using a tissue grinder. Blood samples were centrifuged at 12,000 g for 1 min to separate plasma. Aliquots of plasma (30 µL) and brain homogenate (50 µL) samples were stored at − 80 °C until analysis. Concentrations of DTMB in plasma and brain homogenate samples were analyzed using an Agilent 6470 triple quadrupole liquid chromatography-mass spectrometry (LC–MS/MS) system (Agilent, Wilmington, DE, USA). Aliquots of plasma (30 µL each) and brain homogenate (50 µL each) were added to 100 μL of internal standard solution (IS; berberin 0.1 ng/mL in methanol) and vigorously mixed for 5 min. After centrifugation at 16,000 g for 10 min, a 5 µL aliquot of the supernatant was injected into the LC–MS/MS system. DTMB was separated on a Synergi Polar RP column (2.0 × 150 mm, 4 μm particle size; Phenomenex, Torrence, CA, USA) using an isocratic mobile phase consisting of 10 mM ammonium formate buffer (10%) and methanol (90%) containing 0.1% formic acid at a flow rate of 0.25 mL/min. Quantification of the analyte peaks was carried out at m/z 513.2 → 283.0 for DTMB (TR (retention time) 4.7 min) and m/z 336.1 → 320.0 for berberine (TR 2.9 min) in a […] ionization mode with optimized fragmentor of 135 V and collision energy of 25 or 30 eV, respectively. The pharmacokinetic parameters of DTMB in the plasma and brain were determined by the non-compartmental analysis (WinNonlin® 5.1; Pharsight, Mountain View, CA, USA). Elimination half-life (T1/2) was calculated from the elimination coefficient (K) of DTMB concentrations. Cmax indicated the maximum plasma concentrations and Tmax indicated time to reach Cmax. AUClast and AUCinf were calculated from the area under plasma concentrations curve from zero to the last time point and to infinity, respectively.

RAW 264.7 = assay: Cell viability assay (MTT), RAW 264.7; type: cell-based; conditions: 48 h
Experimental: Cell viability was measured by chromogenic assay involving the biological reduction of 3-(4,5-dimethyl-thiazol-2-yl)-2,5-diphenyltetrazoliumbromide (MTT) to formazan in living cells. Briefly, cells were seeded in 96-well plates in a final volume of 100 μL. After 24 h, the culture media were replaced with fresh media containing DTMB compounds, and the cells were cultured for another 48 h. Next, MTT (5 mg/mL in PBS) was added to the culture medium. The cells were incubated for 1 h in the dark at 37 °C, and the supernatant was then removed from the well. Total MTT solvent (4 mM HCl and 0.1% Nonidet P-40, both in isopropanol) was added to dissolve the formazan crystal, and absorbance was measured at 570 nm using a microplate reader Infinite 200 Pro NanoQuant microplate reader (TECAN, Switzerland).

[2] = system: RAW 264.7 macrophage cells; assay: Griess assay, LPS-induced NO production; type: cell-based; conditions: LPS (1 µg/mL), 24 h
Experimental: Griess assay (Promega) was performed under manufacturer’s instruction to measure the concentration of nitrite after inducing the inflammatory response in RAW 264.7 macrophage cells by LPS treatment. The well-known PPAR selective agonists, such as WY14643 (PPARα), GW501516 (PPAR-β/δ), and rosiglitazone (PPARγ), were used as positive controls.

COc1ccc(-c2cc(=O)oc3c(C)c(OC(=O)[C@H](Cc4c[nH]c5ccccc45)NC(=O)OC(C)(C)C)ccc23)cc1 [DTMB]
relative luciferase activity (PPARγ; HEK293A, 24 h, various concentrations): increased luciferase activity
PPARγ transactivation (luciferase reporter activity) compared to positive control (PPARγ; versus positive control): lower than the positive controls
Kp ([1]; oral, plasma concentration range 0.63–66.9 ng/mL, read-out: mean brain DTMB concentration ratio over the plasma DTMB ([Brain]/[Plasma])): 2.69
Kp ([1]; printed in the Brain column, 50 mg/kg oral, read-out: AUC ratio): 3.53
Tmax ([1]; Brain, 50 mg/kg oral): 0.94 ± 0.18 h
half-life ([1]; Brain, 50 mg/kg oral): 4.41 ± 1.11 h
Tmax ([1]; Plasma, 50 mg/kg oral): 0.75 ± 0.27 h
half-life ([1]; Plasma, 50 mg/kg oral): 1.64 ± 0.27 h
cytotoxicity (MTT) (RAW 264.7): no cytotoxicity
NO production (nitrite) [2]: reduced NO production in a concentration-dependent manner
inhibition of NO production compared between DTMB and known PPAR agonists [2]: inhibited NO production greater than treatment with the known agonists of PPARα and PPARγ

From paper PMC9606171, “Synthetic PPAR Agonist DTMB Alleviates Alzheimer’s Disease Pathology by Inhibition of Chronic Microglial Inflammation in 5xFAD Mice” (Neurotherapeutics, 2022)
